Test results from the CheMixHub viscosity set.
± gives the uncertainty stated by the source.

Assay: xn = mol fraction of the nth substance listed

CCCNCCC + CCCOCCO
viscosity [mPa·s], 101.33 kPa
Settings	298.15 K	308.15 K	318.15 K
x2 = 0.0247	0.53 ± 0.005	0.463 ± 0.005	0.401 ± 0.004
x2 = 0.075	0.592 ± 0.006	0.511 ± 0.005	0.435 ± 0.005
x2 = 0.125	0.657 ± 0.007	0.564 ± 0.006	0.473 ± 0.005
x2 = 0.1902	0.753 ± 0.008	0.636 ± 0.007	0.529 ± 0.006
x2 = 0.2692	0.889 ± 0.009	0.737 ± 0.008	0.602 ± 0.006
x2 = 0.3692	1.09 ± 0.011	0.883 ± 0.009	0.709 ± 0.008
x2 = 0.4334	1.228 ± 0.013	0.985 ± 0.011	0.782 ± 0.009
x2 = 0.476	1.329 ± 0.014	1.058 ± 0.011	0.833 ± 0.009
x2 = 0.5289	1.463 ± 0.016	1.153 ± 0.013	0.903 ± 0.01
x2 = 0.623	1.686 ± 0.019	1.318 ± 0.015	1.021 ± 0.012
x2 = 0.723	1.94 ± 0.022	1.507 ± 0.017	1.157 ± 0.014
x2 = 0.8063	2.136 ± 0.025	1.656 ± 0.02	1.269 ± 0.015
x2 = 0.9114	2.293 ± 0.028	1.78 ± 0.022	1.362 ± 0.017
x2 = 0.9598	2.322 ± 0.029	1.846 ± 0.023	1.413 ± 0.018
x2 = 0.9731	2.333 ± 0.029	1.863 ± 0.023	1.428 ± 0.018

CCOC(=O)c1ccccc1 + CCOC(C)=O
298.15 K, 101 kPa
Settings	viscosity [mPa·s]
x2 = 0.1216	1.704 ± 0.022
x2 = 0.2088	1.514 ± 0.02
x2 = 0.3131	1.292 ± 0.017
x2 = 0.3973	1.157 ± 0.015
x2 = 0.5044	0.9851 ± 0.013
x2 = 0.5998	0.8478 ± 0.011
x2 = 0.6989	0.7247 ± 0.0096
x2 = 0.7997	0.6178 ± 0.0083
x2 = 0.8992	0.5188 ± 0.007

CCOC(=O)c1ccccc1 + CC#N
viscosity [mPa·s], 101.33 kPa
Settings	x1 = 0.129	x1 = 0.25	x1 = 0.362	x1 = 0.469	x1 = 0.571	x1 = 0.657	x1 = 0.756	x1 = 0.832	x1 = 0.914
293.15 K	0.465 ± 0.006	0.496 ± 0.007	0.554 ± 0.008	0.627 ± 0.01	0.714 ± 0.012	0.843 ± 0.016	1.056 ± 0.022	1.362 ± 0.03	1.764 ± 0.042
303.15 K	0.416 ± 0.005	0.444 ± 0.006	0.495 ± 0.007	0.551 ± 0.009	0.621 ± 0.011	0.721 ± 0.014	0.897 ± 0.019	1.12 ± 0.025	1.418 ± 0.034
313.15 K	0.378 ± 0.005	0.403 ± 0.006	0.443 ± 0.007	0.491 ± 0.008	0.549 ± 0.01	0.631 ± 0.012	0.764 ± 0.016	0.939 ± 0.021	1.161 ± 0.028
323.15 K	0.34 ± 0.005	0.362 ± 0.006	0.397 ± 0.006	0.436 ± 0.008	0.485 ± 0.009	0.55 ± 0.011	0.659 ± 0.014	0.799 ± 0.018	0.972 ± 0.023

CNS(C)(=O)=O + CC(=O)N(C)C
303.15 K, 101.33 kPa
Settings	viscosity [mPa·s]
x1 = 0.1009	1.104 ± 0.029
x1 = 0.2022	1.473 ± 0.039
x1 = 0.2303	1.578 ± 0.041
x1 = 0.4082	2.571 ± 0.067
x1 = 0.4802	3.127 ± 0.082
x1 = 0.6009	4.202 ± 0.11
x1 = 0.7019	5.204 ± 0.14
x1 = 0.7958	6.184 ± 0.16
x1 = 0.8966	7.185 ± 0.19

CCOC(=O)c1ccccc1 + CCCCCO
viscosity [mPa·s], 101.3 kPa
Settings	x1 = 0.0771	x1 = 0.1582	x1 = 0.2437	x1 = 0.3339	x1 = 0.4292	x1 = 0.53	x1 = 0.6369	x1 = 0.7504	x1 = 0.8712
303 K	2.883 ± 0.29	2.764 ± 0.28	2.656 ± 0.27	2.533 ± 0.25	2.404 ± 0.24	2.273 ± 0.23	2.135 ± 0.21	1.985 ± 0.2	1.865 ± 0.19
308 K	2.541 ± 0.26	2.449 ± 0.25	2.349 ± 0.24	2.25 ± 0.23	2.154 ± 0.22	2.031 ± 0.2	1.92 ± 0.19	1.8 ± 0.18	1.691 ± 0.17
313 K	2.224 ± 0.22	2.139 ± 0.21	2.051 ± 0.21	1.962 ± 0.2	1.875 ± 0.19	1.787 ± 0.18	1.701 ± 0.17	1.615 ± 0.16	1.528 ± 0.15
318 K	2.005 ± 0.2	1.931 ± 0.19	1.86 ± 0.19	1.789 ± 0.18	1.723 ± 0.17	1.648 ± 0.17	1.56 ± 0.16	1.485 ± 0.15	1.41 ± 0.14
323 K	1.798 ± 0.18	1.739 ± 0.17	1.68 ± 0.17	1.626 ± 0.16	1.569 ± 0.16	1.505 ± 0.15	1.439 ± 0.14	1.376 ± 0.14	1.313 ± 0.13

N#CCc1ccccc1 + CNC(C)=O
308.15 K, 101.33 kPa
Settings	viscosity [mPa·s]
x2 = 0.0446	1.599 ± 0.021
x2 = 0.2775	1.791 ± 0.022
x2 = 0.3928	1.896 ± 0.022
x2 = 0.5001	2.049 ± 0.023
x2 = 0.6015	2.252 ± 0.025
x2 = 0.6941	2.456 ± 0.026
x2 = 0.7795	2.662 ± 0.028
x2 = 0.8542	2.87 ± 0.03
x2 = 0.9375	3.109 ± 0.032

COc1ccc(/C=C/C(=O)c2ccccc2)cc1 + CCO
viscosity [mPa·s], 101 kPa
Settings	x1 = 0.000144	x1 = 0.000288	x1 = 0.0005755	x1 = 0.00115	x1 = 0.002298	x1 = 0.004586
298.15 K	1.12 ± 0.0088	1.173 ± 0.0092	1.263 ± 0.0099	1.34 ± 0.01	1.364 ± 0.011	1.439 ± 0.011
303.15 K	1.019 ± 0.0081	1.072 ± 0.0085	1.162 ± 0.0091	1.239 ± 0.0097	1.263 ± 0.0099	1.338 ± 0.01
308.15 K	0.9181 ± 0.0073	0.971 ± 0.0077	1.061 ± 0.0084	1.138 ± 0.009	1.162 ± 0.0091	1.237 ± 0.0097

CC(C)O + CCCO
viscosity [mPa·s], 101 kPa
Settings	293.15 K	298.15 K	303.15 K	313.15 K	323.15 K
x2 = 0.1001	2.369 ± 0.017	–	1.776 ± 0.014	1.349 ± 0.013	1.048 ± 0.012
x2 = 0.172	–	2.066 ± 0.055	–	–	–
x2 = 0.2006	2.359 ± 0.017	–	1.777 ± 0.014	1.36 ± 0.013	1.066 ± 0.012
x2 = 0.2956	2.344 ± 0.017	–	1.773 ± 0.014	1.365 ± 0.013	1.077 ± 0.012
x2 = 0.33	–	1.997 ± 0.053	–	–	–
x2 = 0.3999	2.322 ± 0.016	–	1.766 ± 0.014	1.368 ± 0.013	1.084 ± 0.012
x2 = 0.4993	2.3 ± 0.016	–	1.758 ± 0.014	1.368 ± 0.013	1.086 ± 0.012
x2 = 0.5	–	2.02 ± 0.053	–	–	–
x2 = 0.6	2.278 ± 0.016	–	1.75 ± 0.014	1.367 ± 0.013	1.088 ± 0.012
x2 = 0.665	–	1.985 ± 0.052	–	–	–
x2 = 0.6973	2.258 ± 0.016	–	1.744 ± 0.014	1.368 ± 0.013	1.089 ± 0.012
x2 = 0.754	–	1.985 ± 0.052	–	–	–
x2 = 0.7993	2.238 ± 0.016	–	1.739 ± 0.014	1.368 ± 0.013	1.091 ± 0.012
x2 = 0.826	–	1.972 ± 0.052	–	–	–
x2 = 0.8994	2.219 ± 0.016	–	1.734 ± 0.014	1.369 ± 0.013	1.096 ± 0.012
